Data from patent US8110398B2, “Stable cell lines and methods for evaluating gastrointestinal absorption of chemicals” (Absorption Systems Group, LLC, priority 2006, dated 2012).

How the values were obtained:
in vitro [1] = settings: human, pH 7.4
in vitro [2] = settings: human, Caco-2, pH 7.4
P-gp [3] = target: T1, P-gp (Homo sapiens, UniProt P08183); experiment: in vitro
Description: (§1) Bidirectional Transcellular Transport assay.
(§2) Each determination was performed in duplicate.
The assay was carried out after each clone had been passaged 9 times.

MRP2 mRNA = experiment: RT-PCR of MRP2 mRNA expression in transduced C2BBe1 cells; assay type: cell-based, human; settings: cells passaged 20 times
Description: (§3) RT-PCR. Total RNA was extracted from cells according to the following protocol. Cells were harvested from culture by centrifugation, resuspended in 1 ml of TRIzol® reagent (Invitrogen, Carlsbad, Calif.), and incubated at room temperature for 5 minutes with gentle shaking. The suspension was transferred to a 1.5 ml centrifuge tube, to which 200 μl of Chloroform was added, followed by an additional 5 minute incubation period with shaking. After incubation, the suspension was centrifuged at 12,000×g for 12 minutes at 4° C. The supernatant was transferred to a fresh, sterile 1.5 ml centrifuge tube, and supplemented with 0.5 ml of 2-propanaol per 1 ml of TRIzol reagent, and incubated for 10 minutes at room temperature. The mixture was then centrifuged at 12,000×g for an additional 12 minutes at 4° C. After centrifugation, the supernatant was removed and the pellet was washed with 75% ethanol. The sample was re-centrifuged at 7500×g for 5 minutes at 4° C., followed by the removal of the supernatant. The pellet was allowed to air dry at room temperature. The pellet was resuspended in pre-warmed (55° C.) nuclease-free water, and incubated at 55° C. for 10 minutes. RNA yield and purity were quantified by absorbance at 260 nm and 280 nm.
(§4) RT-PCR mixtures were set up as 50 μl samples containing buffer, 1-2 μg of RNA, 10 μM of Forward primer, 10 μM of Reverse primer, Taq polymerase, and water. Primers to amplify human P-gylcoprotein were as follows: P-gp Forward 5′-[…]-3′ (SEQ ID NO: 9); and, P-gp Reverse 5′-[…]-3′ (SEQ ID NO: 10). Primers to amplify human MRP2 were as follows: MRP2 Forward 5′-[…]-3′ (SEQ ID NO: 11); and, MRP2 Reverse 5′-[…]-3′ (SEQ ID NO: 12). Primes to amplify human BCRP were as follows: BCRP Forward 5′-[…] 3′ (SEQ ID NO: 13); and, BCRP Reverse 5′-[…] 3′ (SEQ ID NO: 14). Human β-actin was amplified in parallel as a positive control using the following primers: β-actin Forward 5′-[…]-3′ (SEQ ID NO: 15); and, β-actin Reverse 5′-[…]-3′ (SEQ ID NO: 16).
(§5) The PCR cycles proceeded in a programmable thermocycler with the following parameters: cDNA synthesis, 1 cycle, 55° C. for 30 minutes; denaturation, 1 cycle, 94° C. for 2 minutes; PCR amplification, 40 cycles of 94° C. for 15 seconds, 62° C. for 30 seconds, 72° C. for 1 minute; and, final extension, 1 cycle, 72° C. for 5 minutes. Amplification was confirmed by electrophoresis in 2% agarose gels.
For this example, gene expression of MRP2 in C2BBe1 cells was determined by observing both the MRP2 mRNA content as well as the protein content of the cells following viral transduction. To examine mRNA content, total cellular RNA was harvested and amplified by RT-PCR using primers specific to the MRP2 gene (SEQ ID NO: 11 and 12). The RT-PCR products were then analyzed after separation by electrophoresis on a 2% agarose gel.
Vector control (VC) cells were prepared from cells transducted with lentiviruses encoding a non-interfering nucleic acid sequence (SEQ ID NO 27), as described in Example 7. Methods were described in Example 1. […]

BCRP = target: T2, BCRP (Homo sapiens, UniProt Q9UNQ0); experiment: Bidirectional transcellular transport of E3S (BCRP substrate) across C2BBe1-derived monolayers; settings: compared to control cells
T2 sequence (Q9UNQ0 1-655): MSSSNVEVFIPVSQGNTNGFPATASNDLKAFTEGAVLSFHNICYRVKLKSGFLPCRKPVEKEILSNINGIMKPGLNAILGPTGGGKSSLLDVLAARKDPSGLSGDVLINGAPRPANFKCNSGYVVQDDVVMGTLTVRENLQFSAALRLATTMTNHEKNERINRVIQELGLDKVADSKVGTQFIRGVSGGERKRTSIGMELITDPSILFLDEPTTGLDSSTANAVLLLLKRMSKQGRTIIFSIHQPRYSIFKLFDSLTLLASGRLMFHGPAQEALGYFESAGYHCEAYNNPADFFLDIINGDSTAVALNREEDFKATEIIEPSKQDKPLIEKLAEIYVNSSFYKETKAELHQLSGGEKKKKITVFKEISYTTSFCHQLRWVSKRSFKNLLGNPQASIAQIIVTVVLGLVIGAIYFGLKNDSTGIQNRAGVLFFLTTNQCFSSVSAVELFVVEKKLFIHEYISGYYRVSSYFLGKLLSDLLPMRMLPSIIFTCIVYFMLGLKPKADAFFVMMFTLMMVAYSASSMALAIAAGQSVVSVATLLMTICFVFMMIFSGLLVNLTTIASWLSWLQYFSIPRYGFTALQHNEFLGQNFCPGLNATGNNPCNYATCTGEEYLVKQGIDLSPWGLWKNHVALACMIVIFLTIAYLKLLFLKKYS
Description: as §1, §2
Each of the five shRNA/BCRP knockdown clone cells were seeded on transwells for three weeks for the transport assay.

P-gp mRNA = experiment: RT-PCR of P-gp mRNA expression in transduced C2BBe1 cells; assay type: cell-based, human; settings: for P-gp mRNA expression relative to control C2BBe1 cells: RT-PCR, shRNA/P-gp clone cells
Description: as §3, §4, §5
Gene expression of P-gp in knockdown cells (shRNA/P-gp clones #83, 84, 85, 86, and 87) was determined by observing P-gp mRNA content, protein content and protein functional activity. RT-PCR was used to determine the expression of the P-gp mRNA. Total cellular RNA was harvested and amplified using primers specific to P-gp mRNA. RT-PCR products were then separated by electrophoresis on a 2% agarose gel. It was determined that 4 of the 5 shRNA/P-gp clone cells contained substantially less P-gp mRNA than control C2BBe1 cells (FIG. 2, top panel). β-actin was amplified, in parallel, as a positive control, and its expression was not affected by the interfering shRNA (FIG. 2, bottom panel).

BCRP mRNA = experiment: RT-PCR of BCRP mRNA expression in transduced C2BBe1 cells; assay type: cell-based, human; settings: between passages 5 and 20
Description: as §3, with “The sample was re-centrifuged at 7500×g for 5 minutes at 4° C., followed by the removal of the supernatant. The pellet was allowed to air dry at room temperature. The pellet was resuspended in pre-warmed (55° C.) nuclease-free water, and incubated at 55° C. for 10 minutes.” left out, “nm. […]” for “nm.”
For RT-PCR, total cellular RNA was harvested as described in Examples 1 and 3 and amplified by RT-PCR using primers specific to BCRP mRNA (SEQ ID NOs: 13 and 14). The RT-PCR products were separated by electrophoresis on a 2% agarose gel and analyzed to determine whether shRNA/BCRP clone cells produced substantially less BCRP mRNA than C2BBe1 cells transduced with a non-interfering shRNA vector control.

P-gp [4] = target: T1, P-gp; experiment: Calcein-AM assay; settings: transduced C2BBe1 cells vs Un-KD
Description: Calcein-AM assay. To determine activity of the P-gp protein, calcein-AM assays were conducted.
To determine the P-gp activity, cells were plated in 96-well tissue culture plates and cultured for 48. After 48 hours, cell culture media was removed and the cells were washed with phosphate buffered saline solution (PBS). After washing, cells were incubated with 1 μM calcein-AM for 30 minutes. […] After incubation with calcein-AM, the cells were rinsed with fresh control buffer and fluorescence was measured using a Fluo-star fluorescence plate reader (BMG Lab Technologies, N.C.) with excitation and emission filters set at wavelengths of 485 nm and 538 nm, respectively.
Calcein-AM efflux is not mediated by BCRP. Therefore, any increase in calcein-AM uptake by the cells can be attributed to P-gp inhibition. The cells were plated in 96-well tissue culture plates and cultured for 48 hours. After 48 hours, cell culture media was removed and the cells were washed with phosphate buffered saline solution (PBS). After washing, cells were incubated with 1 μM calcein-AM for 30 minutes. […] After incubation with calcein-AM, the cells were rinsed with fresh control buffer and fluorescence was measured using a Fluo-star fluorescence plate reader (BMG Lab Technologies, N.C.) with excitation and emission filters set at wavelengths of 485 nm and 538 nm, respectively. The assay was carried out after each clone had been passaged 9 times.

T1 sequence (P08183 whole entry): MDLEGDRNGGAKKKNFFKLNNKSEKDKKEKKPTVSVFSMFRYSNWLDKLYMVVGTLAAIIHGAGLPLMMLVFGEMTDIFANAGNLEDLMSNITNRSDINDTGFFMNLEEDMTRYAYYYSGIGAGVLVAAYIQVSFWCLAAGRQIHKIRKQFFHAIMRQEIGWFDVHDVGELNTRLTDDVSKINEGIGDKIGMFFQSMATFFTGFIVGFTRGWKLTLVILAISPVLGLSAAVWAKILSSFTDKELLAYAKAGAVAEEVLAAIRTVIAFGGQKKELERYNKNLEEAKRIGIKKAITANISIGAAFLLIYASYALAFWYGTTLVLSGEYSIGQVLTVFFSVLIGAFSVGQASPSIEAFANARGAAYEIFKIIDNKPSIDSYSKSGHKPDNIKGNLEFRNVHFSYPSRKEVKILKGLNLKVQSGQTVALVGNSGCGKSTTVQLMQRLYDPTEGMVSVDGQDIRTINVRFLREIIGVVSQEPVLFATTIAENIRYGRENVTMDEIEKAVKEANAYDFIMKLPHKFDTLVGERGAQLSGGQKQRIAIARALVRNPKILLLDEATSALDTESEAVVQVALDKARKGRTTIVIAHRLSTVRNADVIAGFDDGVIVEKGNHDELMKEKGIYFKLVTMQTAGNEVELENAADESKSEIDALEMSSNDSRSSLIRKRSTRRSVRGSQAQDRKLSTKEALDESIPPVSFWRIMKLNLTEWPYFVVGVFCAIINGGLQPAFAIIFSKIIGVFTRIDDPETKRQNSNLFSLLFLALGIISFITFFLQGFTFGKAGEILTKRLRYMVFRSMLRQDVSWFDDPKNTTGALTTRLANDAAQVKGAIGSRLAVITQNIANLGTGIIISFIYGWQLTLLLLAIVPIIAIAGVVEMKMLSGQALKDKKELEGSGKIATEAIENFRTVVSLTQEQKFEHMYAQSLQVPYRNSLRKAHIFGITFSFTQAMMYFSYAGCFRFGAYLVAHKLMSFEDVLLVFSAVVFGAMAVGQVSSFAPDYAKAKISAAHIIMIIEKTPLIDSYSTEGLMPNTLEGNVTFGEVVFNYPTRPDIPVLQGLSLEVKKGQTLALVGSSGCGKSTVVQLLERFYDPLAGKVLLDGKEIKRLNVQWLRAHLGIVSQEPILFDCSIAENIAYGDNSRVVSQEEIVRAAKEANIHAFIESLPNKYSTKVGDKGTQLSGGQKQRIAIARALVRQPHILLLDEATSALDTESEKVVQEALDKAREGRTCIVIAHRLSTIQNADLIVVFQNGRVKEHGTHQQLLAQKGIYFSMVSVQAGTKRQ

| Compound | efflux ratio at 2 h (in vitro [1]) | efflux ratio at 2 h (in vitro [2]) | P-gp function by intracellular calcein fluorescence (P-gp [4]) | P-gp mRNA expression relative to control C2BBe1 cells (P-gp mRNA) | further results |
| --- | --- | --- | --- | --- | --- |
| Cc1cc(=O)n(-c2ccccc2)n1C [Antipyrine] | 0.92 | 0.84 |  |  |  |
| CNCCCN1c2ccccc2CCc2ccccc21 [Desipramine] | 6.84 | 5.59 |  |  |  |
| C[C@H]1O[C@@H](O[C@H]2[C@@H](O)C[C@H](O[C@H]3[C@@H](O)C[C@H](O[C@H]4CC[C@@]5(C)[C@H](CC[C@@H]6[C@@H]5C[C@@H](O)[C@]5(C)[C@@H](C7=CC(=O)OC7)CC[C@]65O)C4)O[C@@H]3C)O[C@@H]2C)C[C@H](O)[C@@H]1O [Digoxin] |  |  |  |  | Papp A→B at 2 h (P-gp [3]; Caco-2, pH 7.4, Efflux of digoxin A-B): 0.2 ×10⁻⁶ cm/s; Papp B→A at 2 h (P-gp [3]; Caco-2, pH 7.4, Efflux of digoxin B-A): 3.69 ×10⁻⁶ cm/s; Papp B→A at 2 h, 10 µM (P-gp [3]; Caco-2, pH 7.4, Papp B-A (Digoxin)): 8.24 ×10⁻⁶ cm/s |
| COc1cc([C@@H]2c3cc4c(cc3[C@@H](O[C@@H]3O[C@@H]5CO[C@@H](C)O[C@H]5[C@H](O)[C@H]3O)[C@H]3COC(=O)[C@H]23)OCO4)cc(OC)c1O [Etoposide] | 11.5 | 13.7 |  |  |  |
| shRNA/BCRP 801: 21-nucleotide sequence targeting human BCRP gene, SEQ ID NO: 25, lentivirally transduced into C2BBe1 cells; clone #801 (CCGGGCTGTGGCATTAAACAGAGAACTCGAGTTCTCTGTTTAATGCCACAGCTTTTTG; listed as Homo Sapiens) |  |  |  |  | MRP2 mRNA levels in shRNA/BCRP clone cells (MRP2 mRNA): reduced; inhibition for BCRP function in E3S transport (BCRP): 96.43%; P-gp mRNA levels in shRNA/BCRP clone cells (P-gp mRNA; compared with #799 and control cells): higher; BCRP mRNA knockdown over passages (BCRP mRNA): steadily increased |
| shRNA/P-gp #84: shRNA to human P-gp, SEQ ID NO: 2, lentivirally transduced into C2BBe1 cells; clone #84 (CCGGGCAGCAATTAGAACTGTGATTCTCGAGAATCACAGTTCTAATTGCTGCTTTTTG; listed as Homo Sapiens) |  |  | significantly decreased | significantly reduced |  |
| shRNA/P-gp #85: shRNA to human P-gp, SEQ ID NO: 3, lentivirally transduced into C2BBe1 cells; clone #85 (CCGGCGACAGAATAGTAACTTGTTTCTCGAGAAACAAGTTACTATTCTGTCGTTTTTG; listed as Homo Sapiens) |  |  | significantly decreased | significantly reduced |  |
| shRNA/P-gp #86: shRNA to human P-gp, SEQ ID NO: 4, lentivirally transduced into C2BBe1 cells; clone #86 (CCGGGCTCATCGTTTGTCTACAGTTCTCGAGAACTGTAGACAAACGATGAGCTTTTTG; listed as Homo Sapiens) |  |  | significantly decreased | significantly reduced |  |
| shRNA/P-gp #87: shRNA to human P-gp, SEQ ID NO: 5, lentivirally transduced into C2BBe1 cells; clone #87 (CCGGGCTGCTTTCCTGCTGATCTATCTCGAGATAGATCAGCAGGAAAGCAGCTTTTTG; listed as Homo Sapiens) |  |  | significantly decreased | significantly reduced |  |
